The numbers were not newly measured in US20250231185A1, “Coronavirus T Cell Epitopes, Megapools and Uses Thereof” (La Jolla Institute for Immunology, priority 2021, published 2025), which cites them from elsewhere.

For the series, the system named is CD8+ T cells. The conditions noted are these: cited from earlier work; for Restriction: T cell subset (CD4 or CD8) recognizing the SARS-CoV-2-derived epitope; for Dominant: SARS-CoV-2-derived CD8 epitopes, dominant = recognized by 3 or more donors/different studies.

On to 500 (MKDLSPRWY) [compound 500], for which the Restriction entry is “CD8”.

Regarding 501 (LSPRWYFYYL) [compound 501], the Dominant result was “Yes (more dominant epitopes are defined by being recognized by 3 or more donors/different studies)” and the Restriction result is “CD8”.

Turning to 502 (SPRWYFYYL) [compound 502], the Dominant result is “Yes (more dominant epitopes are defined by being recognized by 3 or more donors/different studies)” and the Restriction result is “CD8”.

503 (YLGTGPEAGL) [compound 503]: the Restriction result is “CD8”.

Turning to 504 (GTGPEAGLPY) [compound 504], the Dominant result is “Yes (more dominant epitopes are defined by being recognized by 3 or more donors/different studies)” and the Restriction entry was “CD8”.

Turning to 505 (AGLPYGANK) [compound 505], the Restriction result is “CD8”.

For the substance 506 (LPYGANKDGI) [compound 506], the Restriction entry is on record as “CD8”.

For the substance 507 (YGANKDGIIW) [compound 507], the Restriction result was “CD8”.

Regarding 508 (IIWVATEGA) [compound 508], the Restriction entry is reported as “CD8”.

Regarding 509 (ATEGALNTPK) [compound 509], the Dominant result was “Yes (more dominant epitopes are defined by being recognized by 3 or more donors/different studies)” and the Restriction result is “CD8”.

In the case of 510 (ATEGALNTPKDHI) [compound 510], the Dominant result is reported as “Yes (more dominant epitopes are defined by being recognized by 3 or more donors/different studies)” and the Restriction entry is “CD8”.

For the substance 511 (GTRNPANNA) [compound 511], the Restriction result is recorded as “CD8”.

With 513 (NPANNAAIVL) [compound 513], the Dominant result was “Yes (more dominant epitopes are defined by being recognized by 3 or more donors/different studies)” and the Restriction entry is on record as “CD8”.

Regarding 514 (VLQLPQGTTL) [compound 514], the Dominant entry is listed as “Yes (more dominant epitopes are defined by being recognized by 3 or more donors/different studies)” and the Restriction entry is listed as “CD8”.

On to 515 (AEGSRGGSQA) [compound 515], for which the Restriction result is given as “CD8”.

Turning to 516 (SQASSRSSSR) [compound 516], the Restriction result is reported as “CD8”.

For 517 (SSRGTSPAR) [compound 517], the Restriction result is listed as “CD8”.

As to 518 (LALLLLDRL) [compound 518], the Dominant entry is recorded as “Yes (more dominant epitopes are defined by being recognized by 3 or more donors/different studies)” and the Restriction result is “CD8”.

Take 519 (LLLLDRLNQL) [compound 519]: the Dominant entry is on record as “Yes (more dominant epitopes are defined by being recognized by 3 or more donors/different studies)” and the Restriction result is on record as “CD8”.

As for 520 (LLLDRLNQL) [compound 520], the Dominant result is recorded as “Yes (more dominant epitopes are defined by being recognized by 3 or more donors/different studies)” and the Restriction result is “CD8”.

For 521 (QQQQGQTVTK) [compound 521], the Dominant entry is “Yes (more dominant epitopes are defined by being recognized by 3 or more donors/different studies)” and the Restriction result is reported as “CD8”.

522 (KSAAEASKK) [compound 522]: the Restriction result is “CD8”.

Take 523 (KPRQKRTAT) [compound 523]: the Dominant result is “Yes (more dominant epitopes are defined by being recognized by 3 or more donors/different studies)” and the Restriction entry is recorded as “CD8”.

For the substance 524 (RTATKAYNV) [compound 524], the Restriction result is on record as “CD8”.

For the substance 526 (RRGPEQTQGNF) [compound 526], the Restriction entry is listed as “CD8”.

Regarding 528 (QELIRQGTDYKHW) [compound 528], the Dominant result is given as “Yes (more dominant epitopes are defined by being recognized by 3 or more donors/different studies)” and the Restriction result is reported as “CD8”.

529 (ELIRQGTDY) [compound 529]: the Restriction entry is reported as “CD8”.

As to 530 (DYKHWPQIAQF) [compound 530], the Restriction result is recorded as “CD8”.

As to 531 (HWPQIAQF) [compound 531], the Restriction entry is listed as “CD8”.

Regarding 533 (AQFAPSASAF) [compound 533], the Dominant entry is given as “Yes (more dominant epitopes are defined by being recognized by 3 or more donors/different studies)” and the Restriction entry is on record as “CD8”.

In the case of 534 (QFAPSASAFF) [compound 534], the Restriction result is recorded as “CD8”.

Regarding 535 (FAPSASAFF) [compound 535], the Restriction result is “CD8”.

Consider 536 (APSASAFFGM) [compound 536], for which the Restriction entry is recorded as “CD8”.

As for 537 (SASAFFGMSR) [compound 537], the Restriction entry is given as “CD8”.

As to 538 (ASAFFGMSR) [compound 538], the Dominant entry is listed as “Yes (more dominant epitopes are defined by being recognized by 3 or more donors/different studies)” and the Restriction result is “CD8”.

For the substance 539 (GMSRIGMEV) [compound 539], the Dominant entry is listed as “Yes (more dominant epitopes are defined by being recognized by 3 or more donors/different studies)” and the Restriction result is given as “CD8”.

For 540 (GMEVTPSGTWLTY) [compound 540], the Dominant entry is “Yes (more dominant epitopes are defined by being recognized by 3 or more donors/different studies)” and the Restriction result was “CD8”.

With 541 (MEVTPSGTW) [compound 541], the Dominant entry is listed as “Yes (more dominant epitopes are defined by being recognized by 3 or more donors/different studies)” and the Restriction result is given as “CD8”.

On to 542 (MEVTPSGTWL) [compound 542], for which the Dominant result is listed as “Yes (more dominant epitopes are defined by being recognized by 3 or more donors/different studies)” and the Restriction entry is recorded as “CD8”.

543 (EVTPSGTWLTY) [compound 543]: the Restriction entry was “CD8”.

Regarding 544 (VTPSGTWLTY) [compound 544], the Restriction result is “CD8”.

On to 545 (TPSGTWLTY) [compound 545], for which the Restriction result was “CD8”.

546 (KLDDKDPNF) [compound 546]: the Restriction result is given as “CD8”.

In the case of 547 (ILLNKHIDA) [compound 547], the Dominant entry was “Yes (more dominant epitopes are defined by being recognized by 3 or more donors/different studies)” and the Restriction entry is listed as “CD8”.

For 548 (LLNKHIDAY) [compound 548], the Restriction result was “CD8”.

Consider 549 (AYKTFPPTEPK) [compound 549], for which the Dominant result is given as “Yes (more dominant epitopes are defined by being recognized by 3 or more donors/different studies)” and the Restriction result is listed as “CD8”.

For 550 (YKTFPPTEPK) [compound 550], the Restriction entry is “CD8”.

Turning to 553 (KTFPPTEPKKDKKK) [compound 553], the Restriction result is recorded as “CD8”.

On to 554 (KKQQTVTLL) [compound 554], for which the Restriction entry is listed as “CD8”.

For 555 (LPAADLDDF) [compound 555], the Dominant result is listed as “Yes (more dominant epitopes are defined by being recognized by 3 or more donors/different studies)” and the Restriction entry was “CD8”.

Turning to 556 (AADLDDFSKQL) [compound 556], the Restriction entry is “CD8”.

As to 557 (FSKQLQQSM) [compound 557], the Dominant result is given as “Yes (more dominant epitopes are defined by being recognized by 3 or more donors/different studies)” and the Restriction result is reported as “CD8”.

For 558 (VLSEARQHL) [compound 558], the Dominant entry was “Yes (more dominant epitopes are defined by being recognized by 3 or more donors/different studies)” and the Restriction entry is recorded as “CD8”.

With 559 (HLKDGTCGL) [compound 559], the Restriction entry is given as “CD8”.

As to 560 (APHGHVMVEL) [compound 560], the Restriction entry is on record as “CD8”.

For the substance 561 (VMVELVAEL) [compound 561], the Restriction result is given as “CD8”.

562 (VPHVGEIPV) [compound 562]: the Restriction result was “CD8”.

For 563 (HVGEIPVAY) [compound 563], the Restriction entry is “CD8”.

Turning to 564 (IPVAYRKVLL) [compound 564], the Restriction result was “CD8”.

For the substance 565 (TFNGECPNF) [compound 565], the Restriction result was “CD8”.

For 566 (KTIQPRVEK) [compound 566], the Dominant entry is reported as “Yes (more dominant epitopes are defined by being recognized by 3 or more donors/different studies)” and the Restriction entry was “CD8”.

As for 567 (GFMGRIRSV) [compound 567], the Restriction entry is given as “CD8”.

Regarding 569 (EEIAIILASF) [compound 569], the Restriction entry is “CD8”.

With 570 (AIILASFSAST) [compound 570], the Restriction entry is listed as “CD8”.

For the substance 571 (ILSPLYAFA) [compound 571], the Restriction entry was “CD8”.

Turning to 572 (VRSIFSRTL) [compound 572], the Restriction result is recorded as “CD8”.

With 573 (ITILDGISQY) [compound 573], the Restriction result is given as “CD8”.

As to 574 (RLIDAMMFT) [compound 574], the Restriction result is given as “CD8”.

On to 576 (TVYEKLKPV) [compound 576], for which the Restriction result was “CD8”.

For 577 (YEKLKPVL) [compound 577], the Restriction result was “CD8”.

As to 578 (EIKESVQTF) [compound 578], the Restriction entry is on record as “CD8”.

Regarding 579 (KLVNKFLAL) [compound 579], the Dominant result was “Yes (more dominant epitopes are defined by being recognized by 3 or more donors/different studies)” and the Restriction entry is listed as “CD8”.

In the case of 581 (APKEIIFL) [compound 581], the Restriction result is “CD8”.

For 582 (GETLPTEVL) [compound 582], the Restriction result is “CD8”.

For the substance 583 (VTNNTFTLK) [compound 583], the Dominant result was “Yes (more dominant epitopes are defined by being recognized by 3 or more donors/different studies)” and the Restriction entry is “CD8”.

For 584 (FGDDTVIEV) [compound 584], the Dominant entry is “Yes (more dominant epitopes are defined by being recognized by 3 or more donors/different studies)” and the Restriction result is “CD8”.
